{
  "source": "patent US20250025445A1",
  "about": "“METHOD OF CARDIOPROTECTION” (Race Oncology LTD., priority 2021, published 2025)",
  "key": {"[1]": {"system": "Primary Human Cardiac Myocytes (HCMs)", "assay": "Primary human cardiomyocyte cell viability (CellTiter-Glo)", "type": "cell-based", "settings": "up to 72 hours; for mitigation of toxicity of carfilzomib towards primary HCMs: FTO inhibitor 0-10 μM with 1 μM carfilzomib; for mitigation of toxicity of doxorubicin towards primary HCMs: FTO inhibitor 0-10 μM with 1 μM doxorubicin", "method": "Primary Human Cardiac Myocytes (HCMs) were purchased from PromoCell® (Heidelberg, Germany) and cultured according to manufacturer's recommendations using PromoCell® Myocyte growth media (5% [v/v] foetal calf serum, 0.5 ng/ml recombinant human epidermal growth factor, 2 ng/ml recombinant human basic fibroblast growth factor, 5 μg/ml recombinant human insulin) supplemented with 1% [v/v] Penicillin-Streptomycin [Sigma-Aldrich]). Briefly, 1×10^6 HCMs were seeded and grown in Corning® T75 flasks (Sigma-Aldrich, New South Wales, Australia) in an incubator at 37° C. under 5% CO2 conditions. At 80-90% confluency, HCMs were gently detached using the DetachKit (PromoCell®), collected into Corning® 50 mL centrifuge tubes (Sigma-Aldrich), and centrifuged at 300×g for 10 mins at room temperature. The resulting supernatant were discarded and HCM pellet was resuspended with 5-10 mL of pre-warmed Myocyte Growth Medium. Total viable cells were enumerated with Invitrogen™ Countess Cell Counter (Thermo Fisher Scientific, New South Wales, Australia) and 1×10^5 live HCMs were seeded in triplicate into Corning® 96-well white polystyrene microplate (Sigma).\n(§1) Dox, Dauno and Epi, were dissolved in sterile water to make a stock concentration of 20 mM, respectively, while Tz was dissolved in sterile PBS to a stock concentration of 100 μM. […] The concentrations were as follows 0 nM, 15.62 nM, 62.5 nM, 250 nM, 500 nM, 1 μM, 5 μM, and 10 μM. […] Vehicle controls were incubated with media supplemented with either sterile water or DMSO. […] This was repeated at 48 hours and 72 hours. […] Both FB23/2 and brequinar (MedChemExpress) were dissolved in dimethyl sulfoxide (DMSO; Sigma-Aldrich) to make a stock concentration of 40 mM and 20 mM respectively."}, "[2]": {"system": "H929 multiple myeloma cells", "assay": "H929 multiple myeloma cell viability (CellTiter-Glo)", "type": "cell-based, human", "settings": "FTO inhibitor up to 10 μM with 1 μM doxorubicin; up to 72 hours", "method": "Human multiple myeloma NCI-H929 cells were cultured using RPMI-1640 growth media (Sigma-Aldrich), supplemented with 2 mM L-glutamine (Thermo Fisher Scientific), 10% (v/v) foetal calf serum (Sigma-Aldrich) and 0.05 mM 2-mercaptoethanol (Sigma-Aldrich). Briefly, 0.5×10^6 H929 were seeded and grown in Corning® T75 flasks (Sigma-Aldrich) in an incubator at 37° C. under 5% CO2 conditions. At 80-90% confluency, the cell suspension was then collected into Corning® 50 mL centrifuge tubes (Sigma-Aldrich) and centrifuged at 300×g for 10 mins at room temperature. The resulting supernatant were discarded and H929 pellet was resuspended with 5-10 mL of pre-warmed H929 growth media. Total viable cells were enumerated with Invitrogen™ Countess Cell Counter (Thermo Fisher Scientific, New South Wales, Australia) and 1×10^4 live H929 were seeded in triplicate into Corning® 96-well white polystyrene microplate (Sigma). […] The concentrations were as follows 0 nM, 15.62 nM, 62.5 nM, 250 nM, 500 nM, 1 μM, 5 μM, and 10 μM. […] Vehicle controls were incubated with media supplemented with either sterile water or DMSO. […] This was repeated at 48 hours and 72 hours. […] Both FB23/2 and brequinar (MedChemExpress) were dissolved in dimethyl sulfoxide (DMSO; […]"}, "MCF7 breast cancer cells": {"system": "MCF7 breast cancer cells", "assay": "MCF7 breast cancer cell viability (CellTiter-Glo)", "type": "cell-based, human", "settings": "FTO inhibitor up to 10 μM with 1 μM doxorubicin; up to 72 hours; FIG. 13", "method": "Human breast adenocarcinoma (MCF7) cells were purchased from In Vitro Technologies (Victoria, Australia) and cultured according to manufacturer's recommendations using MCF7 growth media, Low glucose Dulbecco's Modified Eagle's medium (DMEM; Sigma-Aldrich, Australia) supplemented with 10% (v/v) foetal calf serum (Sigma-Aldrich) and 1% (v/v) Penicillin-Streptomycin (Sigma-Aldrich). Briefly, 1×10^6 MCF7 were seeded and grown in Corning® T75 flasks (Sigma-Aldrich) in an incubator at 37° C. under 5% CO2 conditions. At 80-90% confluency, MCF7 were washed with Dulbecco's Phosphate Buffered Saline (Sigma-Aldrich) for 30s at room temperature and followed by incubation with Trypsin-EDTA (Sigma-Aldrich) for 5 mins at 37° C. under 5% CO2 conditions. Trypsin solution was then neutralised with 1:1 volume of MCF7 growth media. The cell suspensions were then collected into Corning® 50 mL centrifuge tubes (Sigma-Aldrich) and centrifuged at 300×g for 10 mins at room temperature. The resulting supernatants were discarded and MCF7 pellets were resuspended with 5-10 mL of pre-warmed MCF7 growth media. Total viable cells were enumerated with Invitrogen™ Countess Cell Counter (Thermo Fisher Scientific, New South Wales, Australia) and 9×10^4 live MCF7 were seeded in triplicate into Corning® 96-well white polystyrene microplate (Sigma).\nas §1"}, "[3]": {"settings": "cited from earlier work"}, "[4]": {"settings": "doxorubicin 5 mg/kg alone", "description": "(§2) In particular, well established cardiotoxicity markers, including left ventricular fractional shortening, heart E/A ratio, left ventricular diastolic function, left ventricular dilatation, cardiac output, plasma triglyceride levels, plasma creatine kinase-MB (CK-MB), plasma LDH (lactate dehydrogenase) and plasma brain natriuretic peptide (BNP) were monitored over a period of up to 42 days following the start of treatments delivered weekly, four times (and therefore final treatment on day 21).\n(§3) Treatments were delivered to mice intravenously on days 0, 7, 14 and 21. Mice underwent echocardiography measurements at days 0, 21 and 42 to determine LVEF, FS, EDV, ESV, CO, E wave, A wave, E′, E/A, and E/E′, and blood samples were taken at days 0, 21 and 42 to assay for cardiac troponin I levels, BNP levels, CK, LDH levels and triglycerides."}, "[5]": {"assay": "Doxorubicin cardiotoxicity in mice: blood tests", "settings": "doxorubicin 5 mg/kg alone", "description": "as §2, §3"}, "[6]": {"settings": "cited from earlier work", "remark": "listed apart in the source"}, "[7]": {"settings": "i.v. weekly x4, day 21, worsening by day 42"}, "[8]": {"settings": "42 days after start of treatment"}},
  "note": "Like-named read-outs stand apart in the source and are kept apart here.",
  "data": [
    {"compound": "Cc1noc(C)c1-c1cc(Cl)c(Nc2ccccc2C(=O)NO)c(Cl)c1", "note": "[FB23/2]", "values": [
      {"measurement": "mitigation of toxicity of carfilzomib towards primary HCMs", "setting": "[1]", "value": "did not mitigate the toxicity"},
      {"measurement": "mitigation of toxicity of doxorubicin towards primary HCMs", "setting": "[1]", "value": "did not mitigate the toxicity"},
      {"measurement": "increased loss of viability of H929 cells cultured with doxorubicin", "setting": "[2]", "value": "neither brequinar nor FB23/2, at concentrations of up to 10 μM, resulted in any increased loss of viability"},
      {"measurement": "increased loss of viability of MCF7 cells cultured with doxorubicin", "setting": "MCF7 breast cancer cells", "value": "neither brequinar nor FB23/2, at concentrations of up to 10 μM, resulted in any increased loss of viability"}
    ]},
    {"compound": "Cc1c(-c2ccc(-c3ccccc3F)cc2)nc2ccc(F)cc2c1C(=O)O", "note": "[brequinar]", "values": [
      {"measurement": "mitigation of toxicity of carfilzomib towards primary HCMs", "setting": "[1]", "value": "did not mitigate the toxicity"},
      {"measurement": "mitigation of toxicity of doxorubicin towards primary HCMs", "setting": "[1]", "value": "did not mitigate the toxicity"},
      {"measurement": "increased loss of viability of H929 cells cultured with doxorubicin", "setting": "[2]", "value": "neither brequinar nor FB23/2, at concentrations of up to 10 μM, resulted in any increased loss of viability"},
      {"measurement": "increased loss of viability of MCF7 cells cultured with doxorubicin", "setting": "MCF7 breast cancer cells", "value": "neither brequinar nor FB23/2, at concentrations of up to 10 μM, resulted in any increased loss of viability"}
    ]},
    {"compound": "CC(C)C[C@H](NC(=O)[C@H](CCc1ccccc1)NC(=O)CN1CCOCC1)C(=O)N[C@@H](Cc1ccccc1)C(=O)N[C@@H](CC(C)C)C(=O)[C@@]1(C)CO1", "note": "[carfilzomib]", "values": [
      {"measurement": "patients with cardiotoxicity", "setting": "[3]", "value": "up to 10%"}
    ]},
    {"compound": "COc1cccc2c1C(=O)c1c(O)c3c(c(O)c1C2=O)C[C@@](O)(C(=O)CO)C[C@@H]3O[C@H]1C[C@H](N)[C@H](O)[C@H](C)O1", "note": "[doxorubicin]", "values": [
      {"measurement": "heart E/A ratio", "setting": "[4]; [7]", "value": "significant cardiotoxic effects"},
      {"measurement": "left ventricular fractional shortening", "setting": "[4]; [7]", "value": "significant cardiotoxic effects"},
      {"measurement": "cardiac output", "setting": "[4]; [8]", "value": "significant cardiotoxic effects"},
      {"measurement": "left ventricular diastolic function", "setting": "[4]; [8]", "value": "significant cardiotoxic effects"},
      {"measurement": "left ventricular dilatation", "setting": "[4]; [8]", "value": "significant cardiotoxic effects"},
      {"measurement": "cardiac output", "setting": "[4]; day 21", "value": "not significantly so"},
      {"measurement": "left ventricular diastolic function", "setting": "[4]; day 21", "value": "not significantly so"},
      {"measurement": "left ventricular dilatation", "setting": "[4]; day 21", "value": "not significantly so"},
      {"measurement": "plasma CK-MB", "setting": "[5]; day 21", "value": "significant increase"},
      {"measurement": "plasma triglyceride levels", "setting": "[5]; day 21 and day 42", "value": "significantly elevated"},
      {"measurement": "congestive heart failure incidence", "setting": "[6]; lifetime cumulative doxorubicin exposure limited to 400-450 mg/m^2", "value": "less than 58"},
      {"measurement": "incidence of congestive heart failure", "setting": "[6]; patients received doxorubicin at 400 mg/m^2", "value": 4.78},
      {"measurement": "incidence of congestive heart failure", "setting": "[6]; patients received doxorubicin at 550 mg/m^2", "value": 26, "unit": "%"},
      {"measurement": "incidence of congestive heart failure", "setting": "[6]; patients received doxorubicin at 700 mg/m^2", "value": 48, "unit": "%"}
    ]}
  ]
}
